ChEMBL document CHEMBL1201862, “PubChem BioAssay data set” (2004)
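Interpolation was linear, between the two tested concentrations surrounding the appropriate level; five concentrations were tested over 48 hours in 96-well plates. GI50 = concentration required for 50% inhibition of growth.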 Calls of active or inactive are those of the source. Cut-off read from the data, not from the text of the source: active = GI50 up to about 1.1 µM and inactive = higher.

Columns and labels:
Assay in all cases: NCI-60 cell line screen, 48 h
786-0 = system: 786-0
A498 = system: A498
A549 = system: A549
ACHN = system: ACHN
CAKI-1 = system: CAKI-1
CCRF-CEM = system: CCRF-CEM
COLO 205 = system: COLO 205
DU-145 = system: DU-145
EKVX = system: EKVX
HCC 2998 = system: HCC 2998
HCT-116 = system: HCT-116
HCT-15 = system: HCT-15
HL-60 = system: HL-60
HOP-62 = system: HOP-62
HOP-92 = system: HOP-92
HT-29 = system: HT-29
Hs-578T = system: Hs-578T
IGROV-1 = system: IGROV-1
K562 = system: K562
KM12 = system: KM12
LOX IMVI = system: LOX IMVI
M14 = system: M14
MCF7 = system: MCF7
MDA-MB-231 = system: MDA-MB-231
MDA-MB-435 = system: MDA-MB-435
MDA-N = system: MDA-N
MOLT-4 = system: MOLT-4
Malme-3M = system: Malme-3M
NCI-H226 = system: NCI-H226
NCI-H23 = system: NCI-H23
NCI-H460 = system: NCI-H460
NCI-H522 = system: NCI-H522
NCI/ADR-RES = system: NCI/ADR-RES
OVCAR-3 = system: OVCAR-3
OVCAR-4 = system: OVCAR-4
OVCAR-5 = system: OVCAR-5
OVCAR-8 = system: OVCAR-8
PC-3 = system: PC-3
RPMI-8226 = system: RPMI-8226
RXF 393 = system: RXF 393
SF-268 = system: SF-268
SF-295 = system: SF-295
SF-539 = system: SF-539
SK-MEL-28 = system: SK-MEL-28
SK-MEL-2 = system: SK-MEL-2
SK-MEL-5 = system: SK-MEL-5
SK-OV-3 = system: SK-OV-3
SN12C = system: SN12C
SNB-19 = system: SNB-19
SNB-75 = system: SNB-75
SR = system: SR
SW-620 = system: SW-620
T47D = system: T47D
U-251 = system: U-251
UACC-257 = system: UACC-257
UACC-62 = system: UACC-62
UO-31 = system: UO-31
BT-549 = system: BT-549
TK-10 = system: TK-10

SMILES: CNC(=O)c1nnn(C2CCCCC2)c1S
- GI50 (786-0): > 100 µM (inactive)
- GI50 (A498): > 100 µM (inactive)
- GI50 (A549): > 100 µM (inactive)
- GI50 (ACHN): > 100 µM (inactive)
- GI50 (CAKI-1): > 100 µM (inactive)
- GI50 (CCRF-CEM): > 100 µM (inactive)
- GI50 (COLO 205): > 100 µM (inactive)
- GI50 (DU-145): > 100 µM (inactive)
- GI50 (EKVX): > 100 µM (inactive)
- GI50 (HCC 2998): > 100 µM (inactive)
- GI50 (HCT-116): > 100 µM (inactive)
- GI50 (HCT-15): > 100 µM
- GI50 (HL-60): > 100 µM (inactive)
- GI50 (HOP-62): > 100 µM (inactive)
- GI50 (HOP-92): > 100 µM (inactive)
- GI50 (HT-29): > 100 µM (inactive)
- GI50 (Hs-578T): > 100 µM (inactive)
- GI50 (IGROV-1): > 100 µM (inactive)
- GI50 (K562): > 100 µM (inactive)
- GI50 (KM12): > 100 µM (inactive)
- GI50 (LOX IMVI): > 100 µM (inactive)
- GI50 (M14): > 100 µM (inactive)
- GI50 (MCF7): > 100 µM (inactive)
- GI50 (MDA-MB-231): > 100 µM (inactive)
- GI50 (MDA-MB-435): > 100 µM (inactive)
- GI50 (MDA-N): > 100 µM (inactive)
- GI50 (MOLT-4): > 100 µM (inactive)
- GI50 (Malme-3M): > 100 µM (inactive)
- GI50 (NCI-H226): > 100 µM (inactive)
- GI50 (NCI-H23): > 100 µM (inactive)
- GI50 (NCI-H460): > 100 µM (inactive)
- GI50 (NCI-H522): > 100 µM (inactive)
- GI50 (NCI/ADR-RES): > 100 µM (inactive)
- GI50 (OVCAR-3): 0.0885 µM (active)
- GI50 (OVCAR-4): > 100 µM (inactive)
- GI50 (OVCAR-5): > 100 µM (inactive)
- GI50 (OVCAR-8): > 100 µM (inactive)
- GI50 (PC-3): > 100 µM (inactive)
- GI50 (RPMI-8226): > 100 µM (inactive)
- GI50 (RXF 393): > 100 µM (inactive)
- GI50 (SF-268): > 100 µM (inactive)
- GI50 (SF-295): > 100 µM (inactive)
- GI50 (SF-539): 6.11 µM (inactive)
- GI50 (SK-MEL-28): > 100 µM (inactive)
- GI50 (SK-MEL-2): > 100 µM (inactive)
- GI50 (SK-MEL-5): > 100 µM (inactive)
- GI50 (SK-OV-3): > 100 µM (inactive)
- GI50 (SN12C): > 100 µM (inactive)
- GI50 (SNB-19): > 100 µM (inactive)
- GI50 (SNB-75): > 100 µM (inactive)
- GI50 (SR): > 100 µM (inactive)
- GI50 (SW-620): > 100 µM (inactive)
- GI50 (T47D): > 100 µM (inactive)
- GI50 (U-251): > 100 µM (inactive)
- GI50 (UACC-257): > 100 µM (inactive)
- GI50 (UACC-62): > 100 µM (inactive)
- GI50 (UO-31): > 100 µM (inactive)

SMILES: Nc1cc2[nH]c(=O)c3cc(Cl)ccc3c2cc1Cl
- GI50 (786-0): 14.8 µM (inactive)
- GI50 (A549): 12.9 µM (inactive)
- GI50 (ACHN): 6.59 µM (inactive)
- GI50 (BT-549): > 100 µM (inactive)
- GI50 (CAKI-1): 8.38 µM (inactive)
- GI50 (CCRF-CEM): 18.7 µM (inactive)
- GI50 (COLO 205): 43.9 µM (inactive)
- GI50 (DU-145): 12 µM (inactive)
- GI50 (EKVX): 2.52 µM (inactive)
- GI50 (HCC 2998): 23.7 µM (inactive)
- GI50 (HCT-116): 5.15 µM (inactive)
- GI50 (HCT-15): 8.17 µM
- GI50 (HL-60): 32.4 µM (inactive)
- GI50 (HOP-62): 16.8 µM (inactive)
- GI50 (HT-29): 22.3 µM (inactive)
- GI50 (Hs-578T): 39.1 µM (inactive)
- GI50 (IGROV-1): 4.07 µM (inactive)
- GI50 (K562): 23 µM (inactive)
- GI50 (KM12): 15.1 µM (inactive)
- GI50 (LOX IMVI): 11.1 µM (inactive)
- GI50 (M14): 36.8 µM (inactive)
- GI50 (MCF7): 0.149 µM (active)
- GI50 (MDA-MB-231): 14.1 µM (inactive)
- GI50 (MDA-MB-435): 14.3 µM (inactive)
- GI50 (MOLT-4): 4.11 µM (inactive)
- GI50 (Malme-3M): 14.7 µM (inactive)
- GI50 (NCI-H226): 0.0649 µM (active)
- GI50 (NCI-H23): 15.8 µM (inactive)
- GI50 (NCI-H460): 5 µM (inactive)
- GI50 (NCI-H522): 13.4 µM (inactive)
- GI50 (NCI/ADR-RES): 13.3 µM (inactive)
- GI50 (OVCAR-3): 12.4 µM (inactive)
- GI50 (OVCAR-4): 31.9 µM (inactive)
- GI50 (OVCAR-5): 15.6 µM (inactive)
- GI50 (OVCAR-8): 3 µM (inactive)
- GI50 (RPMI-8226): 0.514 µM (active)
- GI50 (SF-268): 11.3 µM (inactive)
- GI50 (SF-295): 9.12 µM (inactive)
- GI50 (SF-539): 12.2 µM (inactive)
- GI50 (SK-MEL-28): 60.4 µM (inactive)
- GI50 (SK-MEL-2): 25 µM (inactive)
- GI50 (SK-MEL-5): 12.1 µM (inactive)
- GI50 (SK-OV-3): 3.98 µM (inactive)
- GI50 (SN12C): 10.2 µM (inactive)
- GI50 (SNB-19): 8.47 µM (inactive)
- GI50 (SNB-75): 15.5 µM (inactive)
- GI50 (SR): 2.44 µM (inactive)
- GI50 (SW-620): 8.55 µM (inactive)
- GI50 (T47D): 12.3 µM (inactive)
- GI50 (TK-10): 11.8 µM (inactive)
- GI50 (U-251): 10.9 µM (inactive)
- GI50 (UACC-257): 21.1 µM (inactive)
- GI50 (UACC-62): 16.7 µM (inactive)
- GI50 (UO-31): 10.2 µM (inactive)
